The record followed here is US20210115104A1, “AMYLIN ANALOGUES” (Zealand Pharma A/S, priority 2015, published 2021).

In data set [1] the target is T1, human calcitonin receptor (hCTR2) (Homo sapiens, UniProt P30988).
T1 construct: expressed in transfected cells
T1 sequence (P30988 25-474): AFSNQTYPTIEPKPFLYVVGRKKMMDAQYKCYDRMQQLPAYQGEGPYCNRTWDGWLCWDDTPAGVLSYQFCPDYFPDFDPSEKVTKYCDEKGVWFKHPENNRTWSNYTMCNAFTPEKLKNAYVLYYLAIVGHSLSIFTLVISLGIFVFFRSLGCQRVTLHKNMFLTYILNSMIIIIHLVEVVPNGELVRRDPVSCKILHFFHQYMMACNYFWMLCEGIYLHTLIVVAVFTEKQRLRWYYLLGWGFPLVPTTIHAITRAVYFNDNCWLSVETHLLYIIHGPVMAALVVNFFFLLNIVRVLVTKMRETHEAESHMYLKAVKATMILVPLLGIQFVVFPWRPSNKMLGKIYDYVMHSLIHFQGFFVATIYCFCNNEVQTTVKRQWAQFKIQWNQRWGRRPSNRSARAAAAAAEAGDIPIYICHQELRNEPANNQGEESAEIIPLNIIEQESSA
The experiment in a line: hCTR2 cAMP assay (AlphaScreen) in COS7 cells. It counts as cell-based. As to conditions: cAMP induction, COS7 cells expressing hCTR2; Table 1; read-out: hCTR2 EC50. In outline:
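cAMP induction, read by AlphaScreen after lysis, gives EC50 values via 4PL curve fitting. Peptides were applied at rising concentrations for 15 min at 37 °C, with IBMX and 0.1% casein in HEPES-buffered Tyrode pH 7.4, to COS7 cells (no endogenous RAMPs) stably expressing human CTR2.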
In general terms: Cyclic AMP is a second messenger, typically raised through Gs and lowered through Gi signalling.

Data set [2] deals with T2, human amylin receptor 3 (hAMYR3), hCTR2 co-expressed with hRAMP3 (Homo sapiens, UniProt O60896+P30988).
T2 construct: expressed in transfected cells
T2 sequence (P30988 25-474): T1 sequence (P30988 25-474)
T2 sequence (O60896 24-148 partner): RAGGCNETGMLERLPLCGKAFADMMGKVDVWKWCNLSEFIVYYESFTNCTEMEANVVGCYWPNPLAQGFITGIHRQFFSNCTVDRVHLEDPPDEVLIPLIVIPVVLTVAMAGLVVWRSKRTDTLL
The experiment in a line: hAMYR3 cAMP assay (AlphaScreen) in COS7 cells. It counts as cell-based. As to conditions: cAMP induction, COS7 cells expressing hAMYR3; Table 1; read-out: hAMYR3 EC50. In outline: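 EC50 values derive from 4PL curve fits of cAMP (AlphaScreen) in lysates of RAMP-naive COS7 cells stably carrying hCTR2 plus hRAMP3. Peptide dilution series were applied for 15 min at 37 °C in pH 7.4 Tyrode buffer containing 100 µM IBMX and 0.1% casein.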

The nature of data set [3]: Assessment of physical stability (Thioflavin T fibrillation). As to conditions: 1 mg/ml, 40° C., ThT; for Fibrillation pH 4.0 (Ac): 50 mM acetate buffer pH 4.0, 96 hours; for Fibrillation pH 7.0 (His): 50 mM histidine buffer pH 7.0, 96 hours; for Fibrillation pH 7.0 (Phos.): 50 mM phosphate buffer pH 7.0, 96 hours. Type of data set: physicochemical. Details: key: FND = fibrillation not detected; FD = fibrillation detected. A digest of the protocol:
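Fibrillation lag-time, in hours, taken where regressions of the initial stable phase and the growth phase intersect. ThT (40 μM) fluorescence monitored at 40 °C for 96 h, 10-min reads each preceded by 300 s mixing. Peptide at 1 mg/ml in 50 mM buffers: phosphate or histidine pH 7.0, acetate pH 4.0.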

A short description of data set [4]: Assessment of chemical stability (RP-HPLC normalized purity). Type of data set: physicochemical. As to conditions: 7 days, 40° C., Table 1. A digest of the protocol:
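Purity after 7 days at 40° C is expressed relative to T=0 (set to 100) for each pH. Samples at 0.2 mg/ml, pH 4, 6, 7.5 or 9, analyzed by RP-HPLC with UV 220 nm on C8 (ammonium formate) or C18 (TFA) gradients.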

*1 amine or outer side, *2 acyl side, *3 side chain or, on linkers, in order; H or OH if unused. Where a SMILES comes first, the peptide text is derived from it. Bridges are numbered along the chain shown (N, C = ends). [ ]: non-standard residue; d: D form. The star is where a group is joined. C20 diacid = O=C(O)CCCCCCCCCCCCCCCCCCC(=O)*; γGlu = O=C(O)[C@H](CCC(=O)[*:2])N[*:1]; Hyp = O=C(O)[C@@H]1C[C@@H](O)CN1; NMeI = CC[C@H](C)[C@H](NC)C(=O)O; Sar = CNCC(=O)O

What is called EC50 is the concentration giving half of the maximal effect.

As to `CC[C@H](C)[C@@H](C(=O)N[C@@H](CC(C)C)C(=O)N[C@@H](CO)C(=O)N[C@@H](CO)C(=O)N[C@H](C(=O)N[C@@H](CCC(=O)O)C(=O)N[C@H](C(=O)NCC(=O)N[C@@H](CO)C(=O)N[C@@H](CC(N)=O)C(=O)N[C@H](C(=O)N1C[C@H](O)C[C@H]1C(N)=O)[C@@H](C)O)C(C)C)[C@@H](C)O)N(C)C(=O)[C@H](C)NC(=O)CN(C)C(=O)[C@H](Cc1ccccc1)NC(=O)[C@H](CO)NC(=O)[C@H](CO)NC(=O)[C@H](CCCNC(=N)N)NC(=O)[C@H](CCCCN)NC(=O)[C@H](CC(C)C)NC(=O)[C@H](Cc1ccccc1)NC(=O)[C@H](Cc1c[nH]cn1)NC(=O)[C@H](C)NC(=O)[C@H](CC(C)C)NC(=O)[C@H](CCCNC(=N)N)NC(=O)[C@H](CCC(=O)O)NC(=O)[C@@H](NC(=O)[C@H](C)NC(=O)[C@@H]1CSSC[C@H](NC(=O)[C@H](CCCNC(=N)N)NC(=O)CC[C@H](NC(=O)CCCCCCCCCCCCCCCCCCC(=O)O)C(=O)O)C(=O)NCC(=O)N[C@@H]([C@@H](C)O)C(=O)N[C@@H](C)C(=O)N[C@@H]([C@@H](C)O)C(=O)N1)[C@@H](C)O` [Compound 19, [19CD]-isoGlu-R-C( )-GTAT-C( )-ATERLAHFLKRSSF-Gly(Me)-A-Ile(Me)-LSSTEVGSNT-Hyp-NH2] ({C20 diacid-γGlu}-RCGTATCATERLAHFLKRSSF[Sar]A[NMeI]LSSTEVGSNT[Hyp]-NH2; disulfide 2-7), the EC50 in data set [1] was 0.16 nM. Also, the EC50 in data set [2] worked out at 0.28 nM. For the same compound, in data set [3], the “Fibrillation pH 4.0 (Ac)” value was “FND”, the “Fibrillation pH 7.0 (His)” value was “FND” and the “Fibrillation pH 7.0 (Phos.)” value is “FND”. Further, in data set [4] (pH 4, 0.2 mg/ml), the “Normalized purity after 7 days, 40° C., pH 4” value is “A (A = >90%)”. In addition, the “Normalized purity after 7 days, 40° C., pH 6” value in data set [4] (pH 6, 0.2 mg/ml) is “A (A = >90%)”. In addition, in data set [4] (pH 7.5, 0.2 mg/ml), the “Normalized purity after 7 days, 40° C., pH 7.5” value is “A (A = >90%)”. Moreover, the “Normalized purity after 7 days, 40° C., pH 9” value in data set [4] (pH 9, 0.2 mg/ml) is “C (C = <70%)”.

In the case of `CC[C@H](C)[C@@H](C(=O)N[C@@H](CC(C)C)C(=O)N[C@@H](CO)C(=O)N[C@@H](CO)C(=O)N[C@H](C(=O)N[C@@H](CC(=O)O)C(=O)N[C@H](C(=O)NCC(=O)N[C@@H](CO)C(=O)N[C@@H](CC(=O)O)C(=O)N[C@H](C(=O)N1CCC[C@H]1C(N)=O)[C@@H](C)O)C(C)C)[C@@H](C)O)N(C)C(=O)[C@H](C)NC(=O)CN(C)C(=O)[C@H](Cc1ccccc1)NC(=O)[C@H](CO)NC(=O)[C@H](CO)NC(=O)[C@H](CCCNC(=N)N)NC(=O)[C@H](Cc1c[nH]cn1)NC(=O)[C@H](CC(C)C)NC(=O)[C@H](Cc1ccccc1)NC(=O)[C@H](Cc1c[nH]cn1)NC(=O)[C@H](C)NC(=O)[C@H](CC(C)C)NC(=O)[C@H](CCCNC(=N)N)NC(=O)[C@H](CC(=O)O)NC(=O)[C@@H](NC(=O)[C@H](C)NC(=O)[C@@H]1CSSC[C@H](NC(=O)[C@H](CCCNC(=N)N)NC(=O)CC[C@H](NC(=O)CCCCCCCCCCCCCCCCCCC(=O)O)C(=O)O)C(=O)N2CCC[C@H]2C(=O)N[C@@H]([C@@H](C)O)C(=O)N[C@@H](C)C(=O)N[C@@H]([C@@H](C)O)C(=O)N1)[C@@H](C)O` [Compound 27, [19CD]-isoGlu-R-C( )-PTAT-C( )-ATDRLAHFLHRSSF-Gly(Me)-A-Ile(Me)-LSSTDVGSDTP-NH2] ({C20 diacid-γGlu}-RCPTATCATDRLAHFLHRSSF[Sar]A[NMeI]LSSTDVGSDTP-NH2; disulfide 2-7), the EC50 in data set [1] is 0.063 nM. Further, the EC50 in data set [2] came out at 0.16 nM. Besides, in data set [3], the “Fibrillation pH 4.0 (Ac)” value was “FD”, the “Fibrillation pH 7.0 (His)” value is recorded as “FD” and the “Fibrillation pH 7.0 (Phos.)” value is “FD”.

In the case of `CC[C@H](C)[C@@H](C(=O)N[C@@H](CC(C)C)C(=O)N[C@@H](CO)C(=O)N[C@@H](CO)C(=O)N[C@H](C(=O)N[C@@H](CCC(=O)O)C(=O)N[C@H](C(=O)NCC(=O)N[C@@H](CO)C(=O)N[C@@H](CO)C(=O)N[C@H](C(=O)N1C[C@H](O)C[C@H]1C(N)=O)[C@@H](C)O)C(C)C)[C@@H](C)O)N(C)C(=O)[C@H](C)NC(=O)CN(C)C(=O)[C@H](Cc1ccccc1)NC(=O)[C@H](CO)NC(=O)[C@H](CO)NC(=O)[C@H](CCCNC(=N)N)NC(=O)[C@H](Cc1c[nH]cn1)NC(=O)[C@H](CC(C)C)NC(=O)[C@H](Cc1ccccc1)NC(=O)[C@H](Cc1c[nH]cn1)NC(=O)[C@H](C)NC(=O)[C@H](CC(C)C)NC(=O)[C@H](CCCNC(=N)N)NC(=O)[C@H](CCC(=O)O)NC(=O)[C@@H](NC(=O)[C@H](C)NC(=O)[C@@H]1CSSC[C@H](NC(=O)[C@H](CCCNC(=N)N)NC(=O)CC[C@H](NC(=O)CCCCCCCCCCCCCCCCCCC(=O)O)C(=O)O)C(=O)NCC(=O)N[C@@H]([C@@H](C)O)C(=O)N[C@@H](C)C(=O)N[C@@H]([C@@H](C)O)C(=O)N1)[C@@H](C)O` [Compound 30, [19CD]-isoGlu-R-C( )-GTAT-C( )-ATERLAHFLHRSSF-Gly(Me)-A-Ile(Me)-LSSTEVGSST-Hyp-NH2] ({C20 diacid-γGlu}-RCGTATCATERLAHFLHRSSF[Sar]A[NMeI]LSSTEVGSST[Hyp]-NH2; disulfide 2-7), in data set [1], the EC50 amounted to 0.07 nM. In addition, in data set [2], the EC50 is 0.12 nM. In data set [3], the “Fibrillation pH 4.0 (Ac)” value is “FND”, the “Fibrillation pH 7.0 (His)” value was “FD” and the “Fibrillation pH 7.0 (Phos.)” value is listed as “FD”.

As to `CC[C@H](C)[C@@H](C(=O)N[C@@H](CC(C)C)C(=O)N[C@@H](CO)C(=O)N[C@@H](CO)C(=O)N[C@H](C(=O)N[C@@H](CCC(=O)O)C(=O)N[C@H](C(=O)NCC(=O)N[C@@H](CO)C(=O)N[C@@H](Cc1ccccc1)C(=O)N[C@H](C(=O)N1C[C@H](O)C[C@H]1C(N)=O)[C@@H](C)O)C(C)C)[C@@H](C)O)N(C)C(=O)[C@H](C)NC(=O)CN(C)C(=O)[C@H](Cc1ccccc1)NC(=O)[C@H](CO)NC(=O)[C@H](CO)NC(=O)[C@H](CCCNC(=N)N)NC(=O)[C@H](CCC(N)=O)NC(=O)[C@H](CC(C)C)NC(=O)[C@H](Cc1ccccc1)NC(=O)[C@H](Cc1c[nH]cn1)NC(=O)[C@H](C)NC(=O)[C@H](CC(C)C)NC(=O)[C@H](CCCNC(=N)N)NC(=O)[C@H](CCC(=O)O)NC(=O)[C@@H](NC(=O)[C@H](C)NC(=O)[C@@H]1CSSC[C@H](NC(=O)[C@H](CCCNC(=N)N)NC(=O)CC[C@H](NC(=O)CCCCCCCCCCCCCCCCCCC(=O)O)C(=O)O)C(=O)NCC(=O)N[C@@H]([C@@H](C)O)C(=O)N[C@@H](C)C(=O)N[C@@H]([C@@H](C)O)C(=O)N1)[C@@H](C)O` [Compound 32, [19CD]-isoGlu-R-C( )-GTAT-C( )-ATERLAHFLQRSSF-Gly(Me)-A-Ile(Me)-LSSTEVGSFT-Hyp-NH2] ({C20 diacid-γGlu}-RCGTATCATERLAHFLQRSSF[Sar]A[NMeI]LSSTEVGSFT[Hyp]-NH2; disulfide 2-7), the EC50 in data set [1] stood at 0.17 nM. In data set [2], the EC50 turned out to be 0.23 nM. In data set [3], the “Fibrillation pH 4.0 (Ac)” value is “FND”, the “Fibrillation pH 7.0 (His)” value is given as “FD” and the “Fibrillation pH 7.0 (Phos.)” value is given as “FD”.
